Where two headings read alike, the source gives them in different places.

As usually defined, the mortality is the percentage killed.

Assay [1] relates to cat flea (Ctenocephalides felis). As to the kind of experiment: whole plant or invertebrate. Conditions: Ctenocephalides felis. The class given is in vivo. Summed up: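 Adult C. felis (3-7 days post-emergence; 15 per flask, at least 4 replicates) exposed to a glass flask base dried 24 h after coating with compound in acetone at 1.26 μg/cm^2. Held at 25±1 °C, 75±5% humidity; mortality (immobile or unable to right) scored at 8, 24 and/or 48 h as percentage.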

The subject of assay [2] is Haemonchus contortus. As to the kind of experiment: Haemonchus contortus larvacidal (larval development) assay. The class given is in vivo. Particulars: 144 h, read-out: Haemonchus contortus LD99. On the procedure: a) Haemonchus Contortus Larvacidal Assay:
The effect of compounds on larval development was determined in the assay described by Gill et al. (1995, International Journal of Parasitology 25:463-470). Briefly, in this assay, nematode eggs were applied to the surface of an agar matrix containing the test compound and then allowed to develop through to the L3, infective stage (6 days). The wells for each dilution of every compound (from highest to lowest concentration) were inspected to determine the well number corresponding to the lowest concentration at which development was inhibited in 99% of the nematode larvae present (LD99). Because well numbers correspond to a two-fold serial dilution of each compound, a titre (dilution factor) is generated as 2^n−1, where n is the well number. By dividing the highest concentration tested by the titre an LD99 value can be obtained, representing the concentration required to inhibit development in 99% of the nematode larvae present. The compounds supplied as solid and viscous liquids were dissolved in DMSO. Twelve serial one-half dilutions in DMSO solution were prepared from the stock solution, each of which was then diluted ⅕ with water. Aliquots (10 μl) of each dilution were transferred to the bioassay plates to give a final concentration range of 0.024 to 50 μg/ml.

Where [3] appears, read: 8 h, read-out: C. felis Mortality (%) 8 h, 8 h, Laboratory 1 A data.
[4] abbreviates: 24 h, read-out: C. felis Mortality (%) 24 h, 24 h, Laboratory 1 A data.
Setting [5] is: 8 h, read-out: Ctenocephalides felis Mortality (%) 8 h.
Where [6] appears, read: 24 h, read-out: Ctenocephalides felis Mortality (%) 24 h.
[7] abbreviates: lowest concentration inhibiting development in 99% of larvae, eggs to L3, 6 days, range 0.024 to 50 μg/ml.

Take `C/C(=N\Oc1ccccc1)c1cc(Cl)ccc1NS(=O)(=O)C(F)(F)F` [Compound 125]: the mortality at 1.26 µg/cm2, 1.26 µg/cm2 in assay [1] (setting [3]) came to 6%. Also, the IC99 in assay [2] came out at 5.5 µg/mL.
On the same counts, the results for `CCC/C(=N\OCc1ccc(C(F)(F)F)cc1)c1cc(Cl)ccc1NS(=O)(=O)C(F)(F)F` [Compound 92] are 36% and 1.6 µg/mL.
Turning to `C/C(=N\Oc1ccc(Cl)c(Cl)c1)c1cc(Cl)ccc1NS(=O)(=O)C(F)(F)F` [Compound 140], the mortality at 1.26 µg/cm2, 1.26 µg/cm2 in assay [1] (setting [4]) is 71%. Moreover, the IC99 in assay [2] came to 0.7 µg/mL.
For `C/C(=N\OCc1cc(C(F)(F)F)ccc1C(F)(F)F)c1cc(Cl)ccc1NS(=O)(=O)C(F)(F)F` [Compound 120, N-{2-[1-(2,5-bistrifluoromethylbenzyloxyimino)ethyl]-4-chlorophenyl}trifluoromethanesulfonamide], the mortality at 1.26 µg/cm2, 1.26 µg/cm2 in assay [1] (setting [3]) worked out at 2%. For the same molecule, the IC99 in assay [2] worked out at 0.5 µg/mL.
Consider `C/C(=N\OCC=C(Cl)Cl)c1cc(Cl)ccc1NS(=O)(=O)C(F)(F)F` [Compound 38], for which the mortality at 1.26 µg/cm2, 1.26 µg/cm2 in assay [1] (setting [3]) was determined as 8%. Also, the IC99 in assay [2] was determined as 0.9 µg/mL.
Regarding `C/C(=N\OCc1ccc(Cl)cc1)c1cc(Cl)ccc1NS(=O)(=O)C(F)(F)F` [Compound 16], the mortality at 1.26 µg/cm2, 1.26 µg/cm2 came out at 90% in assay [1] (8 h, read-out: C. felis Mortality (%) 8 h, 8 h, Laboratory 2 B data) and 100% in assay [1] (24 h, read-out: C. felis Mortality (%) 24 h, 24 h, Laboratory 2 B data). In assay [2], the IC99 stood at 1.3 µg/mL.
As to `CC(C)/C(=N\OCc1ccc(C(F)(F)F)cc1C(F)(F)F)c1cc(Cl)ccc1NS(=O)(=O)C(F)(F)F` [Compound 116, N-{2-[1-(2,4-bistrifluoromethylbenzyloxyimino)-2-methylpropyl]-4-chlorophenyl}trifluoromethanesulfonamide], in assay [1] (setting [3]), the mortality at 1.26 µg/cm2, 1.26 µg/cm2 was found to be 10%. In addition, the IC99 in assay [2] is 0.9 µg/mL.
Consider `C/C(=N\OCc1ccc(C(F)(F)F)cc1C(F)(F)F)c1cc(F)ccc1NS(=O)(=O)C(F)(F)F` [Compound 121], for which, in assay [1] (setting [3]), the mortality at 1.26 µg/cm2, 1.26 µg/cm2 is 3%. Moreover, the IC99 in assay [2] was found to be 0.6 µg/mL.
Take `O=S(=O)(Nc1ccc(Cl)cc1-c1cc(-c2ccc(F)cc2)on1)C(F)(F)F` [Compound 228]: the mortality at 1.26 µg/cm2 in assay [1] (setting [5]) and in assay [1] (setting [6]) was 3% in each case. In assay [2] (setting [7]), the IC99 amounted to 0.4 µg/mL.
Regarding `CC/C(=N\OC/C=C/c1ccccc1)c1cc(Cl)ccc1NS(=O)(=O)C(F)(F)F` [Compound 85], the mortality at 1.26 µg/cm2, 1.26 µg/cm2 in assay [1] (setting [3]) was 6%. The IC99 in assay [2] was 1.6 µg/mL.
Regarding `C/C(=N\Oc1ccc(Br)cc1)c1cc(Cl)ccc1NS(=O)(=O)C(F)(F)F` [Compound 137], in assay [1] (setting [4]), the mortality at 1.26 µg/cm2, 1.26 µg/cm2 came to 91%. In assay [2], the IC99 came out at 0.4 µg/mL.
Consider `C/C(=N\Oc1ccc(C#N)cc1)c1cc(Cl)ccc1NS(=O)(=O)C(F)(F)F` [Compound 135], for which the mortality at 1.26 µg/cm2, 1.26 µg/cm2 in assay [1] (setting [4]) was 47%. Also, in assay [2], the IC99 is 3 µg/mL.
`CC/C(=N\OCc1cc(Br)cc(Br)c1)c1cc(Cl)ccc1NS(=O)(=O)C(F)(F)F` [Compound 109]: the mortality at 1.26 µg/cm2, 1.26 µg/cm2 in assay [1] (setting [3]) turned out to be 3%. In addition, in assay [2], the IC99 amounted to 2.8 µg/mL.
The corresponding values for `CC/C(=N\OCc1ccc(F)cc1F)c1cc(Cl)ccc1NS(=O)(=O)C(F)(F)F` [Compound 84] are 95% and 3.3 µg/mL.
With `CC/C(=N\OCc1ccc(C#N)cc1)c1cc(Cl)ccc1NS(=O)(=O)C(F)(F)F` [Compound 91], the mortality at 1.26 µg/cm2, 1.26 µg/cm2 in assay [1] (setting [4]) came out at 67%. For the same molecule, in assay [2], the IC99 was found to be 13 µg/mL.
With `C/C(=N\OCc1ccc(C(F)(F)F)cc1)c1cc(Cl)ccc1NS(=O)(=O)C(F)(F)F` [Compound 14], in assay [1] (setting [3]), the mortality at 1.26 µg/cm2, 1.26 µg/cm2 is 2%. Besides, the IC99 in assay [2] worked out at 0.9 µg/mL.
The corresponding values for `C/C(=N\OCc1ccc(C(F)(F)F)cc1C(F)(F)F)c1cc(Cl)ccc1NS(=O)(=O)C(F)(F)F` [Compound 2, N-{2-[1-(2,4-bistrifluoromethylbenzyloxyimino)ethyl]-4-chlorophenyl}trifluoromethanesulfonamide] are 2% and 0.1 µg/mL.
On the same counts, the results for `O=S(=O)(Nc1ccc(Cl)cc1/C=N/OCc1ccc(Cl)cc1Cl)C(F)(F)F` [Compound 67] are 12% and 0.9 µg/mL.
As for `O=S(=O)(Nc1ccc(Cl)cc1/C=N/OCc1ccc(Cl)c(Cl)c1)C(F)(F)F` [Compound 97, N-{4-chloro-2-[(3,4-dichlorobenzyloxyimino)methyl]phenyl}trifluoromethanesulfonamide], the mortality at 1.26 µg/cm2, 1.26 µg/cm2 in assay [1] (setting [4]) was found to be 42%. In addition, the IC99 in assay [2] is 0.6 µg/mL.
On to `C/C(=N\OCc1ccc(Cl)cc1Cl)c1cc(Cl)ccc1NS(=O)(=O)C(F)(F)F` [Compound 21], for which the mortality at 1.26 µg/cm2, 1.26 µg/cm2 in assay [1] (setting [3]) came to 5%. The IC99 in assay [2] stood at 0.7 µg/mL.
Regarding `O=S(=O)(Nc1ccc(Cl)cc1-c1cc(-c2ccc(F)cc2F)on1)C(F)(F)F` [Compound 231, N-{4-chloro-2-[5-(2,4-difluorophenyl)isoxazol-3-yl]phenyl}trifluoromethanesulfonamide], in assay [1] (setting [6]), the mortality at 1.26 µg/cm2 came out at 7%. Also, in assay [2] (setting [7]), the IC99 was 0.6 µg/mL.
As to `O=S(=O)(Nc1ccc(Cl)cc1/C(=N/OCc1ccc(Cl)cc1Cl)c1ccccc1)C(F)(F)F` [Compound 61], the mortality at 1.26 µg/cm2, 1.26 µg/cm2 in assay [1] (setting [3]) was determined as 17%. Besides, the IC99 in assay [2] stood at 1.7 µg/mL.
With `O=S(=O)(Nc1ccc(Cl)cc1/C=N/OCc1ccc(Br)cc1)C(F)(F)F` [Compound 96], in assay [1] (setting [4]), the mortality at 1.26 µg/cm2, 1.26 µg/cm2 is 21%. Moreover, the IC99 in assay [2] was 0.7 µg/mL.
As to `O=S(=O)(Nc1ccc(Cl)cc1/C=N/OCc1ccc(C(F)(F)F)cc1C(F)(F)F)C(F)(F)F` [Compound 65, N-{2-[(2,4-bistrifluoromethylbenzyloxyimino)methyl]-4-chlorophenyl}trifluoromethanesulfonamide], in assay [1] (setting [3]), the mortality at 1.26 µg/cm2, 1.26 µg/cm2 was 10%. The IC99 in assay [2] is 0.3 µg/mL.
As for `CC/C(=N\Oc1cccc(C(F)(F)F)c1)c1cc(Cl)ccc1NS(=O)(=O)C(F)(F)F` [Compound 133], in assay [1] (setting [4]), the mortality at 1.26 µg/cm2, 1.26 µg/cm2 stood at 71%. For the same molecule, the IC99 in assay [2] was 0.9 µg/mL.
For the molecule `O=S(=O)(Nc1ccc(Cl)cc1/C(=N/OCc1ccc(Cl)c(Cl)c1)c1ccccc1)C(F)(F)F` [Compound 87, N-{4-chloro-2-[(3,4-dichlorobenzyloxyimino)phenylmethyl]phenyl}trifluoromethanesulfonamide], the mortality at 1.26 µg/cm2, 1.26 µg/cm2 in assay [1] (setting [3]) is 5%. Moreover, the IC99 in assay [2] is 1.3 µg/mL.
On to `CCC/C(=N\OCc1ccc(C(F)(F)F)cc1C(F)(F)F)c1cc(Cl)ccc1NS(=O)(=O)C(F)(F)F` [Compound 98], for which the mortality at 1.26 µg/cm2, 1.26 µg/cm2 in assay [1] (setting [3]) worked out at 79%. For the same molecule, the IC99 in assay [2] is 1.4 µg/mL.
For `O=S(=O)(Nc1ccc(Cl)cc1-c1cc(-c2ccc(Cl)c(Cl)c2)on1)C(F)(F)F` [Compound 230], the mortality at 1.26 µg/cm2 in assay [1] (setting [5]) stood at 8%; in assay [1] (setting [6]) it was 15%. The IC99 in assay [2] (setting [7]) was determined as 0.4 µg/mL.
On the same counts, the results for `O=S(=O)(Nc1ccc(Cl)cc1-c1cc(-c2ccc(Cl)cc2)on1)C(F)(F)F` [Compound 227] are 7%, 9% and 0.1 µg/mL.
Take `CC/C(=N\Oc1ccc(Br)cc1)c1cc(Cl)ccc1NS(=O)(=O)C(F)(F)F` [Compound 138]: in assay [1] (setting [4]), the mortality at 1.26 µg/cm2, 1.26 µg/cm2 is 78%. The IC99 in assay [2] was found to be 1.7 µg/mL.
Regarding `C/C(=N\OCc1ccc(C#N)cc1)c1cc(Cl)ccc1NS(=O)(=O)C(F)(F)F` [Compound 73], the mortality at 1.26 µg/cm2, 1.26 µg/cm2 in assay [1] (setting [3]) was found to be 1%. For the same molecule, the IC99 in assay [2] is 5 µg/mL.
For the molecule `O=S(=O)(Nc1ccc(Cl)cc1-c1cc(-c2ccc(Cl)cc2Cl)on1)C(F)(F)F` [Compound 229, N-{4-chloro-2-[5-(2,4-dichlorophenyl)isoxazol-3-yl]phenyl}trifluoromethanesulfonamide], the mortality at 1.26 µg/cm2 in assay [1] (setting [5]) worked out at 2%; in assay [1] (setting [6]), 7%. The IC99 in assay [2] (setting [7]) came to 0.09 µg/mL.

For the origin of these results see US7312248B2, “Control of parasites in animals by the use of novel trifluoromethanesulfonanilide oxime ether derivatives” (Schering-Plough Animal Health Corporation, priority 2004, dated 2007).
